Results reported in the supplement of paper PMC10307832.

What was measured:
Assay in all cases: relative viability (nuclei count vs DMSO), 5 days (fraction); higher = more cells survive
COR-L23 = tested on: COR-L23
How it was run: (§1)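 Medians of duplicate plates are given as relative viability. That measure is the nuclei count in treated wells divided by the count in vehicle wells. Counts were taken on 4× images of lung cancer cell lines in 1536-well plates, 5 days after pin-tool dosing the day after seeding with one drug alone or a fixed anchor-drug dose plus five library-drug doses (not always all listed) in √10 steps.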

ChaGo-K-1 = tested on: ChaGo-K-1
How it was run: as §1

EMC-BAC-2 = tested on: EMC-BAC-2
How it was run: as §1

HARA = tested on: HARA
How it was run: as §1

HCC-15 = tested on: HCC-15
How it was run: as §1

HCC-366 = tested on: HCC-366
How it was run: as §1

HCC-78 = tested on: HCC-78
How it was run: as §1

HOP-62 = tested on: HOP-62
How it was run: as §1

LC-2-ad = tested on: LC-2-ad
How it was run: as §1

NCI-H1395 = tested on: NCI-H1395
How it was run: as §1

NCI-H1793 = tested on: NCI-H1793
How it was run: as §1

NCI-H1944 = tested on: NCI-H1944
How it was run: as §1

NCI-H1993 = tested on: NCI-H1993
How it was run: as §1

NCI-H2023 = tested on: NCI-H2023
How it was run: as §1

NCI-H2126 = tested on: NCI-H2126
How it was run: as §1

NCI-H2228 = tested on: NCI-H2228
How it was run: as §1

NCI-H23 = tested on: NCI-H23
How it was run: as §1

NCI-H2405 = tested on: NCI-H2405
How it was run: as §1

NCI-H838 = tested on: NCI-H838
How it was run: as §1

SK-LU-1 = tested on: SK-LU-1
How it was run: as §1

## Cc1sc2c(c1C)C(c1ccc(Cl)cc1)=N[C@@H](CC(=O)OC(C)(C)C)c1nnc(C)n1-2 [JQ1] + CC1(C)CCC(c2ccc(Cl)cc2)=C(CN2CCN(c3ccc(C(=O)NS(=O)(=O)c4ccc(N[C@H](CCN5CCOCC5)CSc5ccccc5)c(S(=O)(=O)C(F)(F)F)c4)cc3)CC2)C1 [Navitoclax] (partner 0.5 µM)
COR-L23; first compound 0.04 µM
  relative viability: 1.02
COR-L23; first compound 0.1265 µM
  relative viability: 0.763
COR-L23; first compound 0.4 µM
  relative viability: 0.858
COR-L23; first compound 1.265 µM
  relative viability: 0.357
COR-L23; first compound 4 µM
  relative viability: 0.155
ChaGo-K-1; first compound 0.04 µM
  relative viability: 1.08
ChaGo-K-1; first compound 0.4 µM
  relative viability: 0.868
ChaGo-K-1; first compound 1.265 µM
  relative viability: 0.405
ChaGo-K-1; first compound 4 µM
  relative viability: 0.481
EMC-BAC-2; first compound 0.04 µM
  relative viability: 1.18
EMC-BAC-2; first compound 0.1265 µM
  relative viability: 1.18
EMC-BAC-2; first compound 0.4 µM
  relative viability: 1.01
EMC-BAC-2; first compound 1.265 µM
  relative viability: 0.61
EMC-BAC-2; first compound 4 µM
  relative viability: 0.658
HARA; first compound 0.04 µM
  relative viability: 1.11
HARA; first compound 0.1265 µM
  relative viability: 1
HARA; first compound 0.4 µM
  relative viability: 0.781
HARA; first compound 1.265 µM
  relative viability: 0.261
HARA; first compound 4 µM
  relative viability: 0.234
HCC-15; first compound 0.04 µM
  relative viability: 0.692
HCC-15; first compound 0.4 µM
  relative viability: 0.532
HCC-15; first compound 1.265 µM
  relative viability: 0.331
HCC-15; first compound 4 µM
  relative viability: 0.299
HCC-366; first compound 0.04 µM
  relative viability: 1.05
HCC-366; first compound 0.4 µM
  relative viability: 0.915
HCC-366; first compound 1.265 µM
  relative viability: 0.63
HCC-366; first compound 4 µM
  relative viability: 0.115
HCC-78; first compound 0.04 µM
  relative viability: 0.799
HCC-78; first compound 0.1265 µM
  relative viability: 0.761
HCC-78; first compound 0.4 µM
  relative viability: 0.465
HCC-78; first compound 1.265 µM
  relative viability: 0.285
HCC-78; first compound 4 µM
  relative viability: 0.242
HOP-62; first compound 0.04 µM
  relative viability: 0.926
HOP-62; first compound 0.1265 µM
  relative viability: 0.841
HOP-62; first compound 0.4 µM
  relative viability: 0.516
HOP-62; first compound 1.265 µM
  relative viability: 0.133
HOP-62; first compound 4 µM
  relative viability: 0.0774
LC-2-ad; first compound 0.04 µM
  relative viability: 0.486
LC-2-ad; first compound 0.1265 µM
  relative viability: 0.58
LC-2-ad; first compound 0.4 µM
  relative viability: 0.376
LC-2-ad; first compound 1.265 µM
  relative viability: 0.196
LC-2-ad; first compound 4 µM
  relative viability: 0.175
NCI-H1395; first compound 0.04 µM
  relative viability: 1.13
NCI-H1395; first compound 0.1265 µM
  relative viability: 1.03
NCI-H1395; first compound 0.4 µM
  relative viability: 0.951
NCI-H1395; first compound 1.265 µM
  relative viability: 0.633
NCI-H1395; first compound 4 µM
  relative viability: 0.516
NCI-H1793; first compound 0.04 µM
  relative viability: 0.408
NCI-H1793; first compound 0.1265 µM
  relative viability: 0.345
NCI-H1793; first compound 0.4 µM
  relative viability: 0.515
NCI-H1793; first compound 1.265 µM
  relative viability: 0.444
NCI-H1793; first compound 4 µM
  relative viability: 0.377
NCI-H1944; first compound 0.04 µM
  relative viability: 1.02
NCI-H1944; first compound 0.1265 µM
  relative viability: 0.922
NCI-H1944; first compound 0.4 µM
  relative viability: 1.07
NCI-H1944; first compound 1.265 µM
  relative viability: 0.762
NCI-H1944; first compound 4 µM
  relative viability: 0.617
NCI-H1993; first compound 0.04 µM
  relative viability: 0.929
NCI-H1993; first compound 0.1265 µM
  relative viability: 0.811
NCI-H1993; first compound 0.4 µM
  relative viability: 0.861
NCI-H1993; first compound 1.265 µM
  relative viability: 0.85
NCI-H1993; first compound 4 µM
  relative viability: 0.875
NCI-H2023; first compound 0.04 µM
  relative viability: 0.98
NCI-H2023; first compound 0.1265 µM
  relative viability: 0.915
NCI-H2023; first compound 0.4 µM
  relative viability: 0.846
NCI-H2023; first compound 1.265 µM
  relative viability: 0.334
NCI-H2023; first compound 4 µM
  relative viability: 0.369
NCI-H2126; first compound 0.04 µM
  relative viability: 0.892
NCI-H2126; first compound 0.1265 µM
  relative viability: 0.733
NCI-H2126; first compound 0.4 µM
  relative viability: 0.843
NCI-H2126; first compound 1.265 µM
  relative viability: 0.578
NCI-H2126; first compound 4 µM
  relative viability: 0.555
NCI-H2228; first compound 0.04 µM
  relative viability: 1.13
NCI-H2228; first compound 0.1265 µM
  relative viability: 0.671
NCI-H2228; first compound 0.4 µM
  relative viability: 0.667
NCI-H2228; first compound 1.265 µM
  relative viability: 0.557
NCI-H2228; first compound 4 µM
  relative viability: 0.308
NCI-H23; first compound 0.04 µM
  relative viability: 0.687
NCI-H23; first compound 0.1265 µM
  relative viability: 0.781
NCI-H23; first compound 0.4 µM
  relative viability: 0.62
NCI-H23; first compound 1.265 µM
  relative viability: 0.395
NCI-H23; first compound 4 µM
  relative viability: 0.144
NCI-H2405; first compound 0.04 µM
  relative viability: 0.886
NCI-H2405; first compound 0.4 µM
  relative viability: 0.491
NCI-H2405; first compound 1.265 µM
  relative viability: 0.136
NCI-H2405; first compound 4 µM
  relative viability: 0.117
NCI-H838; first compound 0.04 µM
  relative viability: 1.1
NCI-H838; first compound 0.1265 µM
  relative viability: 0.592
NCI-H838; first compound 0.4 µM
  relative viability: 0.662
NCI-H838; first compound 1.265 µM
  relative viability: 0.355
NCI-H838; first compound 4 µM
  relative viability: 0.247
SK-LU-1; first compound 0.04 µM
  relative viability: 0.841
SK-LU-1; first compound 0.1265 µM
  relative viability: 0.784
SK-LU-1; first compound 0.4 µM
  relative viability: 0.791
SK-LU-1; first compound 1.265 µM
  relative viability: 0.0557
SK-LU-1; first compound 4 µM
  relative viability: 0.0951
